Laboratory results from patent US4420481A, “Use of piperazine compounds as immunopotentiating agents” (Mitsuitoatsu Chemicals Inc., priority 1980, dated 1983).

Key:
[1] = test system: EL-4 leukemic cells; assay: Test 3: In-Vitro Test of Inhibition of Growth of Cancer Cell by Macrophage; assay type: cell-based; conditions: 8 mg/Kg intraperitoneal to mice, macrophages collected after 4 days, with EL-4 cells; control 80.2
Method: The results of the test of the action of the effective ingredient of the present invention on the macrophage will now be described with reference to the following Test 3. More specifically, the separated macrophage and EL-4 leukemic cell were mixed and cultured, and ^3 H-thymidine was added to a culture medium and the quantity of ^3 H-thymidine incorporated into the EL-4 cell was determined to examine the activity of the macrophage. When the macrophage is activated by administration of the effective ingredient of the present invention, inhibition of the growth of EL-4 cell, that is, phagocytosis of the cancer cell by the macrophage, is observed. Accordingly, if the take-in amount of ^3 H-thymidine is measured and this amount is reduced, it is confirmed that the macrophage has been activated. […] The dose was 8 mg per Kg of the body weight. To the control group, a physiological saline solution was similarly administered. After passage of 4 days, exuded abdominal cells were collected and deposited on a plastic Petri dish to collect microphages. Then, 1×10^6 of so obtained macrophages and 1×10^5 of EL-4 leukemic cells of C57 BL/6J mouse were mixed with cultured in an RPM1 1640 culture medium to which 10% of bovine embryo serum was added (at 37° C. in the presence of 5% of CO2) for 24 hours. Then, 0.1μ Ci of ^3 H-thymidine was added and culturing was further conducted for 16 hours. Cells were collected on a filter paper from the culture medium and the amount of ^3 H-thymidine taken in was determined by a liquid scintillation counter. […] For comparison, the test was similarly carried out by using Levamisol hydrochloride. Results

[2] = test system: Sarcoma 180; assay: Test 4: Test of Antitumor Effect to Sarcoma 180 by Oral Administration; assay type: in vivo, ICR female mice; conditions: for N: number of living mice: 100 mg/Kg oral; for D: average diameter of tumor: 100 mg/Kg oral once a day, 10 days
Method: To the control group, a physiological saline solution was similarly administered. The dose of the compound was 100 mg per Kg of the body weight. The diameter D (mm) of the tumor was measured, and the average value and the number N of the living mice were determined to obtain results shown in Table 4.

[3] = test system: Sarcoma 180; assay: Test 5: Test of Carcinostatic Effect to Sarcoma 180 by Subcutaneous Administration; assay type: in vivo, ICR female mice; conditions: 20 mg/Kg subcutaneous
Method: To the control group, a physiological saline solution was similarly administered. […] The diameter D (mm) of the tumor was measured, and the average value and the number N of the living mice were determined to obtain results shown in Table 4.

## CN1CCN(C(=O)N2CCCCC2)CC1 [drawing 14]
[1]
  Take-In Ratio of 3H-thymidine (average value): 22.6%

## O=C(N1CCCCC1)N1CCN(c2ccccc2)CC1 [drawing 15]
[1]
  Take-In Ratio of 3H-thymidine (average value): 21.9%

## CN1CCN(C(=O)N2CCCC2)CC1 [drawing 16]
[2]; 0 weeks, control 6
  N: number of living mice: 6
[2]; 2 weeks, control 10.6
  D: average diameter of tumor: 7.7 mm
[2]; 2 weeks, control 6
  N: number of living mice: 6
[2]; 4 weeks, control 15.2
  D: average diameter of tumor: 6.3 mm
[2]; 4 weeks, control 6
  N: number of living mice: 6
[2]; 6 weeks, control 22.4
  D: average diameter of tumor: 5.5 mm
[2]; 6 weeks, control 6
  N: number of living mice: 6
[2]; 8 weeks, control 31.5
  D: average diameter of tumor: 4.7 mm
[2]; 8 weeks, control 5
  N: number of living mice: 6
[2]; 10 weeks, control 37.6
  D: average diameter of tumor: 0 mm
[2]; 10 weeks, control 1
  N: number of living mice: 6

## CN1CCN(C(=O)N2CCCCC2)CC1 [drawing 17]
[2]; 0 weeks, control 6
  N: number of living mice: 6
[2]; 2 weeks, control 10.6
  D: average diameter of tumor: 6.0 mm
[2]; 2 weeks, control 6
  N: number of living mice: 6
[2]; 4 weeks, control 15.2
  D: average diameter of tumor: 4.7 mm
[2]; 4 weeks, control 6
  N: number of living mice: 6
[2]; 6 weeks, control 22.4
  D: average diameter of tumor: 4.8 mm
[2]; 6 weeks, control 6
  N: number of living mice: 6
[2]; 8 weeks, control 31.5
  D: average diameter of tumor: 3.3 mm
[2]; 8 weeks, control 5
  N: number of living mice: 6
[2]; 10 weeks, control 37.6
  D: average diameter of tumor: 0 mm
[2]; 10 weeks, control 1
  N: number of living mice: 6

## O=C(N1CCCCC1)N1CCN(c2ccccc2)CC1 [drawing 18]
[2]; 0 weeks, control 6
  N: number of living mice: 6
[2]; 2 weeks, control 10.6
  D: average diameter of tumor: 6.2 mm
[2]; 2 weeks, control 6
  N: number of living mice: 6
[2]; 4 weeks, control 15.2
  D: average diameter of tumor: 3.8 mm
[2]; 4 weeks, control 6
  N: number of living mice: 6
[2]; 6 weeks, control 22.4
  D: average diameter of tumor: 4.4 mm
[2]; 6 weeks, control 6
  N: number of living mice: 6
[2]; 8 weeks, control 31.5
  D: average diameter of tumor: 5.3 mm
[2]; 8 weeks, control 5
  N: number of living mice: 6
[2]; 10 weeks, control 37.6
  D: average diameter of tumor: 0 mm
[2]; 10 weeks, control 1
  N: number of living mice: 6

## CN1CCN(C(=O)N2CCCC2)CC1 [drawing 19]
[3]; 0 weeks, control 6
  N: number of living mice: 6
[3]; 2 weeks, control 6
  N: number of living mice: 6
[3]; 2 weeks, control 10.8
  D: average diameter of tumor: 2.2 mm
[3]; 4 weeks, control 6
  N: number of living mice: 6
[3]; 4 weeks, control 16.6
  D: average diameter of tumor: 3.6 mm
[3]; 6 weeks, control 6
  N: number of living mice: 6
[3]; 6 weeks, control 20.3
  D: average diameter of tumor: 6.1 mm
[3]; 8 weeks, control 4
  N: number of living mice: 6
[3]; 8 weeks, control 31.2
  D: average diameter of tumor: 1.2 mm
[3]; 10 weeks, control 1
  N: number of living mice: 5
[3]; 10 weeks, control 40.5
  D: average diameter of tumor: 0 mm

## CN1CCN(C(=O)N2CCCCC2)CC1 [drawing 20]
[3]; 0 weeks, control 6
  N: number of living mice: 6
[3]; 2 weeks, control 6
  N: number of living mice: 6
[3]; 2 weeks, control 10.8
  D: average diameter of tumor: 1.6 mm
[3]; 4 weeks, control 6
  N: number of living mice: 6
[3]; 4 weeks, control 16.6
  D: average diameter of tumor: 3.7 mm
[3]; 6 weeks, control 6
  N: number of living mice: 6
[3]; 6 weeks, control 20.3
  D: average diameter of tumor: 5.7 mm
[3]; 8 weeks, control 4
  N: number of living mice: 6
[3]; 8 weeks, control 31.2
  D: average diameter of tumor: 0.8 mm
[3]; 10 weeks, control 1
  N: number of living mice: 6
[3]; 10 weeks, control 40.5
  D: average diameter of tumor: 0 mm

## O=C(N1CCCCC1)N1CCN(c2ccccc2)CC1 [drawing 21]
[3]; 0 weeks, control 6
  N: number of living mice: 6
[3]; 2 weeks, control 6
  N: number of living mice: 6
[3]; 2 weeks, control 10.8
  D: average diameter of tumor: 2.4 mm
[3]; 4 weeks, control 6
  N: number of living mice: 6
[3]; 4 weeks, control 16.6
  D: average diameter of tumor: 3.9 mm
[3]; 6 weeks, control 6
  N: number of living mice: 6
[3]; 6 weeks, control 20.3
  D: average diameter of tumor: 5.2 mm
[3]; 8 weeks, control 4
  N: number of living mice: 6
[3]; 8 weeks, control 31.2
  D: average diameter of tumor: 0.2 mm
[3]; 10 weeks, control 1
  N: number of living mice: 6
[3]; 10 weeks, control 40.5
  D: average diameter of tumor: 0 mm
